Experiments:
amyloid-β plaque = test: Congo red staining of amyloid-β plaque in 3xTg-AD mice; format: in vivo, mouse; conditions: 9.5 m-old 3xTg-AD mice; subcutaneous 3 mg/kg every 6 days, 5 times
3xTg-AD mice = test: Multiple-doses subcutaneous administration in 3xTg-AD mice, behavior and synaptic function; format: in vivo, mouse; conditions: 9.5 m-old 3xTg-AD mice, subcutaneous 3 mg/kg every 6 days, 5 times
Protocol: The Open field (OF) test was consisted of a 5 min session in a quadrate chamber (white opaque plastic). The chamber was divided into 16 square regions, a central field (center 4 square regions) and a periphery field. Each mouse was placed in the same position at the start of the test. Behaviors were recorded and analyzed by the video tracking system (Chengdu Taimeng Software Co., Ltd, China).
For novel object recognition (NOR) test, the mice were habituated to a quadrate chamber (white opaque plastic) for 5 min without objects 24 h prior to the test. The chamber was cleaned with 75% ethanol between each habituation period. The day after the mice re-entered the chamber from the same starting point and were given 10 min to familiarize themselves with the object A and object B. After each period the chamber and objects were cleaned with 75% ethanol. The next day after the familiarization period, object B was replaced with noval object C, and the mice were given 10 min to explore both objects. The exploring time in object A (TA) and C (TC) was recorded using the video tracking system. The discrimination index was calculated by (TC-TA)/(TA+TC).
The Elevated plus maze (EPM) test was performed as follows: mice were placed at the junction of the four arms of the maze (white opaque plastic), and started the test from facing an open arm. The chambers were cleaned with 75% ethanol before the next mouse was trained. The entries and duration time in each arm were recorded for 5 min by the video tracking system (Chengdu Taimeng Software Co., Ltd, China). An increase in open arm activity (duration and/or entries) reflects anti-anxiety behavior.
The Morris water maze (MWM) test was conducted to assess the spatial learning and memory. The maze was filled with water and divided into 4 quadrants with a platform placed in one quadrant. The mice were trained to find the hidden platform for 6 consecutive days, and underwent […] training trials (once per quadrant) per day from 14:00 to 20:00 pm. In each training trial, the mouse started from one of four quadrants facing the wall of the pool and the trial ended when the animal climbed on the platform. […] The spatial memory was tested 1 d after the last training by removed the platform. The longer a mouse stayed in the previous platform-located quadrant, the better it scored the spatial memory. A video camera, fixed to the ceiling 1.5 m from the water surface, was used to record the swimming path and the time for mice to find the platform (latency) or to pass through the previous platform-located quadrant each day. The camera was connected to a digital-tracking device attached to an IBM computer (Armonk, NY).
For fear conditioning (FC) test, the mice were placed into a square chamber with a grid floor. On the first day (day 1), each mouse was habituated to the chamber for 3 min, and then a foot shock (0.9 mA, 3 s) was delivered. Three sequential foot shocks at 3 min intervals were applied. Then the mice were returned to their home cages. On the next day (day 2), the mice were exposed to the same chamber without any stimulus for 3 min. The contextual conditioning was assessed by recording freezing behavior during the 3 min exposure. Freezing time during the 3 min was recorded for assessment of memory.
Mice used for electrophysiology experiments were deeply anesthetized as described above. When all pedal reflexes were abolished, brains were removed and placed in ice-cold oxygenated slicing solution containing the following: 225 mM sucrose, 3 mM KCl, 1.25 mM NaH2PO4, 24 mM NaHCO3, 6 mM MgSO4, 0.5 mM CaCl2, and 10 mM D-glucose. Coronal slices (300 μm thickness) were cut at 4-5 °C in the slicing solution using a Leica VT1000S vibratome and then transferred to an incubation chamber filled with oxygenated slicing solution in a 30 °C water bath for 1 h before being recorded. […]

## CC(=O)N1CCCN(c2nc(NCCc3cccs3)nc(N(C)CC(=O)NCCOCCOCCOCC(=O)N[C@H](C(=O)N3C[C@H](O)C[C@H]3C(=O)NCc3ccc(-c4scnc4C)cc3)C(C)(C)C)n2)CC1 [C004019]
amyloid-β plaque
  amyloid-β plaque (Congo red staining): No significant effects on amyloid-β plaque
3xTg-AD mice
  FC test, freezing index: restored the freezing index
  NOR test, discrimination index: almost completely restored the memory ability
  motor and anxiety levels (OF and EPM tests): did not significantly affect the motor and anxiety levels
3xTg-AD mice; 6 days learning trial
  MWM test, latency to reach the platform: shorter latency to reach the platform
3xTg-AD mice; Golgi-cox staining
  spine density: restored spine density
3xTg-AD mice; Sholl analysis
  neurite arborization: didn't have any effect on neurite arborization
3xTg-AD mice; hippocampal slices
  LTP induction (fEPSP amplitude and slope): restored

From paper PMC8039949, “A novel small-molecule PROTAC selectively promotes tau clearance to improve cognitive functions in Alzheimer-like models” (Theranostics, 2021)
